# Reference: patent US20050169944A1, “Increasing tumor oxygen content by administration of stressed cells” (priority 2002, published 2005)
# Key:
# [1] = Tolerability of intravenous ozone in tumor bearing mice; format: in vivo, C3H mice; conditions: 50 μl of 5 or 20 μg of ozone per ml of oxygen, tail vein, 5 daily injections, with melphalan
# Procedure: In order to stress cells in vivo, ozone at 5 μg per ml of oxygen, or 20 μg per ml of oxygen was injected directly into the tail vein of tumor bearing mice. Such injections are performed by filling a 1 cc syringe with the indicated concentration of ozone in medical grade oxygen. The gas is slowly injected into the tail vein so not to induce embolism. Due to the high solubility of oxygen and ozone in blood, embolism formation is not usually a problem.
# 8 week old male C3H mice were inoculated with 2×10^6 FSaIIC murine fibrosarcoma cells in the hind limb. When tumors reached a volume of 50 mm^3, animal were divided into 4 groups of 10 mice. Group I was untreated, Group II was administered a dose of 10 mg/kg melphalan by intraperitoneal injection. Group III was administered melphalan together with 50 μl of 5 μg of ozone per ml of oxygen by tail vein injection. Group IV was administered melphalan with 50 μl of 20 μg of ozone per ml of oxygen by tail vein injection. Following the initial melphalan injection, animals in Groups III and IV continued receiving intravenous injections of 50 μl of 5 μg of ozone per ml of oxygen, or 50 μl of 20 μg of ozone per ml of oxygen, respectively for 4 days, one injection per day. All animals were observed until tumors attained a volume of 500 mm^3. The delay in tumor time to achieve […] volume is illustrated in FIG. 8.
# [2] = tested on: FSaIIC murine fibrosarcoma; test: Tumor growth delay with melphalan (time to 500 mm^3); format: in vivo, C3H mice; conditions: melphalan 10 mg/kg i.p. plus 50 μl of 5 or 20 μg of ozone per ml of oxygen by tail vein injection, then 4 days; FIG. 8
# Procedure: 8 week old male C3H mice were inoculated with 2×10^6 FSaIIC murine fibrosarcoma cells in the hind limb. When tumors reached a volume of 50 mm^3, animal were divided into 4 groups of 10 mice. Group I was untreated, Group II was administered a dose of 10 mg/kg melphalan by intraperitoneal injection. Group III was administered melphalan together with 50 μl of untreated syngeneic blood injected intramuscularly in the non-tumor bearing hind limb. Group IV was administered melphalan with 50 μl of syngeneic blood treated with 20 μl ozone/ml of oxygen. Following the initial melphalan injection, animals in Groups III and IV continued receiving intramuscular injections of 50 μl of untreated syngeneic blood, or 50 μl of syngeneic blood treated with 20 μl ozone/ml of oxygen, respectively for 4 days, one injection per day. All animals were observed until tumors attained a volume of 500 mm^3. The delay in tumor time to achieve 500 mm^3 volume is illustrated in FIG. 4.
# 8 week old male C3H mice were inoculated with 2×10^6 FSaIIC murine fibrosarcoma cells in the hind limb. When tumors reached a volume of 50 mm^3, animal were divided into 4 groups of 10 mice. Group I was untreated, Group II was administered a dose of 10 mg/kg melphalan by intraperitoneal injection. Group HI was administered melphalan together with an intramuscular injection of 1×10^6 syngeneic untreated mononuclear cells. […]
smiles,measurement,setting,value
"O=[O+][O-] [intravenous ozone, ozone]",tolerability,[1],well tolerated
same,delay in time to achieve 500 mm^3 tumor volume with melphalan,[2],increased the tumor inhibitory effects of melphalan
